“And” between values parts separate entries of the source, which are not always exact repeats. Identical values can stand only once. Toxic doses and inconclusive results are not listed. The calls were made as follows: active = survival T/C of 150% or more; inactive = T/C below 125% in these data.
Tested on: P388 leukemia ip, CD2F1 mice, survival T/C
Experiment: NCI In Vivo Anticancer Drug Screen. Data for tumor model P388 Leukemia (intraperitoneal) in CD2F1 (CDF1) mice
Details: endpoint: median survival time, higher = longer survival
Outline: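 Mice carrying the transplanted tumor received test compound or vehicle. Survival was recorded in each group, and the value is the treated-group measurement divided by that of the vehicle-treated control group.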

[1] = dose: 100.0 mg/kg/injection, schedule: Q04DX002 (ip), vehicle: Klucel (hydroxypropylcellulose) (HPC)
[2] = dose: 200.0 mg/kg/injection, schedule: Q04DX002 (ip), vehicle: Klucel (hydroxypropylcellulose) (HPC)
[3] = dose: 400.0 mg/kg/injection, schedule: Q04DX002 (ip), vehicle: Klucel (hydroxypropylcellulose) (HPC)
[4] = dose: 25.0 mg/kg/injection, schedule: Q01DX005 (ip), vehicle: saline
[5] = dose: 200.0 mg/kg/injection, schedule: Q01DX005 (ip), vehicle: saline
[6] = dose: 50.0 mg/kg/injection, schedule: Q01DX005 (ip), vehicle: Klucel (hydroxypropylcellulose) (HPC)
[7] = dose: 100.0 mg/kg/injection, schedule: Q01DX005 (ip), vehicle: Klucel (hydroxypropylcellulose) (HPC)
[8] = dose: 200.0 mg/kg/injection, schedule: Q01DX005 (ip), vehicle: Klucel (hydroxypropylcellulose) (HPC)
[9] = dose: 100.0 mg/kg/injection, schedule: Q04DX003 (ip), vehicle: Klucel (hydroxypropylcellulose) (HPC)
[10] = dose: 200.0 mg/kg/injection, schedule: Q04DX003 (ip), vehicle: Klucel (hydroxypropylcellulose) (HPC)
[11] = dose: 25.0 mg/kg/injection, schedule: Q04DX003 (ip), vehicle: saline
[12] = dose: 50.0 mg/kg/injection, schedule: Q04DX003 (ip), vehicle: saline
[13] = dose: 50.0 mg/kg/injection, schedule: Q01DX005 (ip), vehicle: saline
[14] = dose: 100.0 mg/kg/injection, schedule: Q01DX005 (ip), vehicle: saline
[15] = dose: 60.0 mg/kg/injection, schedule: Q01DX005 (ip), vehicle: saline with Tween-80
[16] = dose: 120.0 mg/kg/injection, schedule: Q01DX005 (ip), vehicle: saline with Tween-80
[17] = dose: 50.0 mg/kg/injection, schedule: Q01DX009 (ip), vehicle: saline with Tween-80
[18] = dose: 100.0 mg/kg/injection, schedule: Q01DX009 (ip), vehicle: saline with Tween-80
[19] = dose: 200.0 mg/kg/injection, schedule: Q01DX009 (ip), vehicle: saline with Tween-80
[20] = dose: 50.0 mg/kg/injection, schedule: Q01DX005 (ip), vehicle: saline with Tween-80
[21] = dose: 100.0 mg/kg/injection, schedule: Q01DX005 (ip), vehicle: saline with Tween-80
[22] = dose: 240.0 mg/kg/injection, schedule: Q01DX005 (ip), vehicle: saline with Tween-80

Measured: T/C

Cc1nc2ccccc2c2c1C(=O)c1ccccc1-2
inactive: [1] 96 % of control | [2] 89 % of control | [3] 89 % of control

Nc1ccn([C@@H](C=O)C[C@@H](C=O)CO)c(=O)n1
active: [5] 150 % of control | dose: 400.0 mg/kg/injection, schedule: Q01DX005 (ip), vehicle: saline 166 % of control
inactive: [4] 112 % of control

Nc1nc(C2CCCC2)cc(=O)[nH]1
inactive: [6] 108 % of control | [7] 105 % of control | [8] 97 % of control

COC(=O)C1=NNC2(c3ccccc3Sc3ccccc32)C1C(=O)OC (configuration not stated)
inactive: [6] 90 % of control | [7] 92 % of control | [8] 90 % of control

CCOP(=O)(/C=C1/C(=O)OCC1(C)C)OCC
inactive: dose: 100.0 mg/kg/injection, schedule: Q04DX003 (ip), vehicle: saline 100 % of control | dose: 200.0 mg/kg/injection, schedule: Q04DX003 (ip), vehicle: saline 101 % of control | dose: 400.0 mg/kg/injection, schedule: Q04DX003 (ip), vehicle: saline 104 % of control

CC(=C\C=N\N(C)c1ccccc1)/C=C1\Cc2ccccc2C1=O
inactive: [9] 99 % of control | [10] 97 % of control | dose: 400.0 mg/kg/injection, schedule: Q04DX003 (ip), vehicle: Klucel (hydroxypropylcellulose) (HPC) 96 % of control

CSc1nccc2ccccc12
inactive: dose: 12.5 mg/kg/injection, schedule: Q01DX009 (ip), vehicle: other 96 % of control | dose: 25.0 mg/kg/injection, schedule: Q01DX009 (ip), vehicle: other 93 % of control | dose: 50.0 mg/kg/injection, schedule: Q01DX009 (ip), vehicle: other 118 % of control

O=C(CCN1CC1)OCCOC(=O)CCN1CC1
active: [11] 159 % of control | dose: 50.0 mg/kg/injection, schedule: Q04DX003 (ip), vehicle: saline with Tween-80 150 % of control | [12] 181 % of control | dose: 75.0 mg/kg/injection, schedule: Q04DX003 (ip), vehicle: saline with Tween-80 166 % of control

N#CCCC[n+]1cc2ccccc2c2ccccc21
inactive: [4] 100 % of control | [13] 101 % of control and 109 % of control | [14] 105 % of control and 112 % of control

O=C(Nc1ccccc1C1=NCCN1)c1ccc(C(=O)Nc2ccccc2C2=NCCN2)cc1
inactive: [6] 96 % of control | [7] 87 % of control | [8] 91 % of control

CN1CCOC(c2ccccc2)c2ccsc2CC1 (configuration not stated)
inactive: [15] 98 % of control | [16] 93 % of control

Cc1c(N(C)C)nc2cc(N(C)C)ccc2c1Cl
inactive: [17] 91 % of control | [18] 92 % of control | [19] 91 % of control

CCN(CC)c1ncnc2c1nnn2C
inactive: [20] 101 % of control | [21] 100 % of control | dose: 200.0 mg/kg/injection, schedule: Q01DX005 (ip), vehicle: saline with Tween-80 107 % of control

CCCCCCCCCCCCCCCC1=NCCN1
inactive: [20] 105 % of control | [21] 107 % of control

CCOC(=O)C1(O)C(=O)ON=C1c1ccccc1 (configuration not stated)
inactive: [6] 100 % of control | [7] 104 % of control | [8] 107 % of control

Cc1cn(C)c2c1-c1[nH]ncc1CC2
inactive: dose: 50.0 mg/kg/injection, schedule: Q04DX003 (ip), vehicle: Klucel (hydroxypropylcellulose) (HPC) 100 % of control | [9] 99 % of control | [10] 103 % of control

Cn1c([N+](=O)[O-])cnc1/C=C1/Cc2cc(OCCN3CCCCCC3)ccc2C1=O
inactive: dose: 25.0 mg/kg/injection, schedule: Q01DX009 (ip), vehicle: saline with Tween-80 110 % of control | [17] 101 % of control | [18] 109 % of control

NC(=O)C1CCCN1C(=O)/C=C\c1ccccc1 (configuration not stated)
inactive: [15] 109 % of control | [16] 112 % of control | [22] 101 % of control

CCOC(=O)CC(CSCP(=O)(OCC)OCC)C(=O)OCC (configuration not stated)
inactive: [15] 105 % of control | [16] 94 % of control | [22] 100 % of control

COc1cc(OC)c(NC(=O)C(Sc2nc(C)cc(C)c2C#N)c2ccccc2)cc1Cl (configuration not stated)
inactive: dose: 12.5 mg/kg/injection, schedule: Q01DX005 (ip), vehicle: Klucel (hydroxypropylcellulose) (HPC) 89 % of control | dose: 25.0 mg/kg/injection, schedule: Q01DX005 (ip), vehicle: Klucel (hydroxypropylcellulose) (HPC) 92 % of control and 93 % of control | [6] 100 % of control and 93 % of control | [7] 98 % of control | [8] 87 % of control

CNP1(NC)=NP(N(C)C)(N(C)C)=NP(N(C)C)(N(C)C)=N1
inactive: [13] 102 % of control | [14] 112 % of control | [5] 104 % of control

BrC1CC(Br)c2c1c1c(c3c2C(Br)CC3Br)C(Br)CC1Br (configuration not stated)
active: [18] 150 % of control | [19] 156 % of control

CC1=C(C)C(=O)OC(C(C)(O)C2(O)CCC3(O)C4CC(O)C56OC5C=CC(=O)C6(C)C4CCC32C)C1 (configuration not stated)
inactive: dose: 0.75 mg/kg/injection, schedule: Q01DX005 (ip), vehicle: Klucel (hydroxypropylcellulose) (HPC) 100 % of control | dose: 1.5 mg/kg/injection, schedule: Q01DX005 (ip), vehicle: Klucel (hydroxypropylcellulose) (HPC) 102 % of control | dose: 3.0 mg/kg/injection, schedule: Q01DX005 (ip), vehicle: Klucel (hydroxypropylcellulose) (HPC) 108 % of control | dose: 6.0 mg/kg/injection, schedule: Q01DX005 (ip), vehicle: Klucel (hydroxypropylcellulose) (HPC) 111 % of control

CCC1CC(C)C(=O)NC1=O (configuration not stated)
inactive: dose: 12.5 mg/kg/injection, schedule: Q04DX003 (ip), vehicle: saline 100 % of control | [11] 100 % of control | [12] 109 % of control

Cn1c2cc3ccccc3cc2nc2cc3c(cc21)c(Cl)c(=O)c1ccccc13
inactive: [17] 109 % of control | [18] 99 % of control | [19] 100 % of control

O=C(Cn1ccnc1)N1CCN(c2ccccc2)CC1
inactive: [15] 100 % of control | [16] 94 % of control | [22] 96 % of control

FC(F)(F)c1ccccc1NC(=S)SCc1ccccc1
inactive: dose: 50.0 mg/kg/injection, schedule: Q01DX009 (ip), vehicle: suspension in saline 91 % of control | dose: 100.0 mg/kg/injection, schedule: Q01DX009 (ip), vehicle: suspension in saline 90 % of control | dose: 200.0 mg/kg/injection, schedule: Q01DX009 (ip), vehicle: suspension in saline 90 % of control

Clc1c(-c2ccccc2)oc2nc3ccccc3nc12
inactive: [15] 116 % of control | [16] 110 % of control | [22] 111 % of control

COC(=O)/C=C1/Nc2cnc(Nc3ccccc3)nc2N(c2ccccc2)C1=O
inactive: dose: 40.0 mg/kg/injection, schedule: Q01DX009 (ip), vehicle: saline 87 % of control | dose: 80.0 mg/kg/injection, schedule: Q01DX009 (ip), vehicle: saline 89 % of control | dose: 160.0 mg/kg/injection, schedule: Q01DX009 (ip), vehicle: saline 87 % of control

CC(C)(O)c1cc2nc3ccccc3nc2n1CCO
inactive: [15] 109 % of control | [16] 107 % of control | [22] 108 % of control

[N-]=[N+]=Nc1ccccc1C(=O)Nc1ccccc1C(N)=O
inactive: [1] 101 % of control | [2] 104 % of control | [3] 104 % of control

O=c1[nH]c(=O)n(C2CC(O)C(CO)O2)cc1I (configuration not stated)
inactive: dose: 40.0 mg/kg/injection, schedule: Q01DX009 (ip), vehicle: saline with Tween-80 101 % of control | dose: 80.0 mg/kg/injection, schedule: Q01DX009 (ip), vehicle: saline with Tween-80 105 % of control | [18] 118 % of control | dose: 100.0 mg/kg/injection, schedule: Q04DX003 (ip), vehicle: saline sonified 110 % of control | dose: 160.0 mg/kg/injection, schedule: Q01DX009 (ip), vehicle: saline with Tween-80 104 % of control | [19] 118 % of control | dose: 200.0 mg/kg/injection, schedule: Q04DX003 (ip), vehicle: saline sonified 120 % of control | dose: 320.0 mg/kg/injection, schedule: Q01DX009 (ip), vehicle: saline with Tween-80 122 % of control | dose: 400.0 mg/kg/injection, schedule: Q01DX009 (ip), vehicle: saline with Tween-80 118 % of control | dose: 400.0 mg/kg/injection, schedule: Q04DX003 (ip), vehicle: saline sonified 120 % of control

CCOCCOCCOc1cccc2cccnc12
inactive: [6] 103 % of control | [7] 107 % of control | [8] 107 % of control

From PubChem BioAssay AID330 (DTP/NCI, 2004)
